Tested on: modified version of the GPR119 receptor (94% identity to human receptor)
Experiment: cAMP production assay (LANCE cAMP kit, TR-FRET) in HEK-293 cells
Assay type: cell-based
Conditions: for cAMP production in HEK-293 cells: HEK-293 cells stably expressing modified GPR119, test compounds 0.2 nM to 10 μM, one-hour incubation; for Fold over baseline: increase in cAMP relative to basal levels, agonist activity if 1.5-fold or greater
How it was run: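 Doxycycline-induced HEK-293 cells expressing modified GPR119 exposed to compounds (0.2 nM to 10 μM, 0.5% DMSO) for one hour at ambient temperature in HBSS with HEPES and BSA. cAMP measured by TR-FRET competition and interpolated from a standard curve; agonism defined as ≥1.5-fold over basal.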

| SMILES | cAMP production in HEK-293 cells [nmol] | Fold over baseline |
| --- | --- | --- |
| CCS(=O)(=O)c1ccc(OC2CCN(C3CCN(c4nc(CC(C)C)ns4)CC3)C2=O)c(F)c1 (stereo not shown) [Example 68, 3-(4-(ethylsulfonyl)-2-fluorophenoxy)-1-(1-(3-isobutyl-1,2,4-thiadiazol-5-yl)piperidin-4-yl)pyrrolidin-2-one] | 14.5 | 3.1 |
| CS(=O)(=O)c1ccc(O[C@H]2CCN(C3CCN(c4nc(Br)ns4)CC3)C2=O)c(F)c1 [Example 69, (S)-1-(1-(3-bromo-1,2,4-thiadiazol-5-yl)piperidin-4-yl)-3-(2-fluoro-4-(methylsulfonyl)phenoxy)pyrrolidin-2-one] | 10.6 | 2.1 |
| CS(=O)(=O)c1ccc(O[C@H]2CCN(C3CCN(c4nc(-c5cnco5)ns4)CC3)C2=O)c(F)c1 [Example 70, (S)-3-(2-fluoro-4-(methylsulfonyl)phenoxy)-1-(1-(3-(oxazol-5-yl)-1,2,4-thiadiazol-5-yl)piperidin-4-yl)pyrrolidin-2-one] | 11.4 | 3.1 |
| Cc1ncccc1-c1nsc(N2CCC(N3CC[C@H](Oc4ccc(S(C)(=O)=O)cc4F)C3=O)CC2)n1 [Example 71, (S)-3-(2-fluoro-4-(methylsulfonyl)phenoxy)-1-(1-(3-(2-methylpyridin-3-yl)-1,2,4-thiadiazol-5-yl)piperidin-4-yl)pyrrolidin-2-one] | 5.9 | 2.1 |
| Cn1nccc1-c1nsc(N2CCC(N3CC[C@H](Oc4ccc(S(C)(=O)=O)cc4F)C3=O)CC2)n1 [Example 72, (S)-3-(2-fluoro-4-(methylsulfonyl)phenoxy)-1-(1-(3-(1-methyl-1H-pyrazol-5-yl)-1,2,4-thiadiazol-5-yl)piperidin-4-yl)pyrrolidin-2-one] | 10.6 | 2.9 |
| Cn1cc(-c2nsc(N3CCC(N4CC[C@H](Oc5ccc(S(C)(=O)=O)cc5F)C4=O)CC3)n2)cn1 [Example 73, (S)-3-(2-fluoro-4-(methylsulfonyl)phenoxy)-1-(1-(3-(1-methyl-1H-pyrazol-4-yl)-1,2,4-thiadiazol-5-yl)piperidin-4-yl)pyrrolidin-2-one] | 6.2 | 2.2 |
| CS(=O)(=O)c1ccc(O[C@H]2CCN(C3CCN(c4nc(Oc5ccccc5)ns4)CC3)C2=O)c(F)c1 [Example 74, (S)-3-(2-fluoro-4-(methylsulfonyl)phenoxy)-1-(1-(3-phenoxy-1,2,4-thiadiazol-5-yl)piperidin-4-yl)pyrrolidin-2-one] | 15.3 | 4.2 |
| Cc1nn(C)c(Oc2nsc(N3CCC(N4CC[C@H](Oc5ccc(S(C)(=O)=O)cc5F)C4=O)CC3)n2)c1C [Example 75, (S)-3-(2-fluoro-4-(methylsulfonyl)phenoxy)-1-(1-(3-(1,3,4-trimethyl-1H-pyrazol-5-yloxy)-1,2,4-thiadiazol-5-yl)piperidin-4-yl)pyrrolidin-2-one] | 6.9 | 2.7 |
| Cc1ncccc1Oc1nsc(N2CCC(N3CC[C@H](Oc4ccc(S(C)(=O)=O)cc4F)C3=O)CC2)n1 [Example 76, (S)-3-(2-fluoro-4-(methylsulfonyl)phenoxy)-1-(1-(3-(2-methylpyridin-3-yloxy)-1,2,4-thiadiazol-5-yl)piperidin-4-yl)pyrrolidin-2-one] | 5.7 | 2.5 |
| CC(C)c1nsc(N2CCC(N3CCC(Oc4ccc(C(=O)NCCO)cc4F)C3=O)CC2)n1.Cl (stereo not shown) [Example 77, 3-Fluoro-N-(2-hydroxyethyl)-4-(1-(1-(3-isopropyl-1,2,4-thiadiazol-5-yl)piperidin-4-yl)-2-oxopyrrolidin-3-yloxy)benzamide hydrochloride] | 15.1 | 2.8 |
| CC(C)c1nsc(N2CCC(N3CCC(Oc4ccc(C(=O)N(C)CCN(C)C)cc4F)C3=O)CC2)n1 (stereo not shown) [Example 78, N-(2-(dimethylamino)ethyl)-3-fluoro-4-(1-(1-(3-isopropyl-1,2,4-thiadiazol-5-yl)piperidin-4-yl)-2-oxopyrrolidin-3-yloxy)-N-methylbenzamide] | 5.0 | 1.6 |
| CC(C)c1nsc(N2CCC(N3CCC(Oc4ccc(C(=O)N(C)CCO)cc4F)C3=O)CC2)n1 (stereo not shown) [Example 79, 3-fluoro-N-(2-hydroxyethyl)-4-(1-(1-(3 isopropyl-1,2,4-thiadiazol-5-yl)piperidin-4-yl)-2-oxopyrrolidin-3-yloxy)-N-methylbenzamide] | 19.0 | 3.2 |
| CC(C)c1nsc(N2CCC(N3CCC(Oc4ccc(C(=O)N(C)CCN)cc4F)C3=O)CC2)n1 (stereo not shown) [Example 80, N-(2-aminoethyl)-3-fluoro-4-(1-(1-(3-isopropyl-1,2,4-thiadiazol-5-yl)piperidin-4-yl)-2-oxopyrrolidin-3-yloxy)-N-methylbenzamide] | 16.1 | 2.8 |
| CC(C)c1nsc(N2CCC(N3CCC(Oc4ccc(C(=O)NCCN(C)C)cc4F)C3=O)CC2)n1 (stereo not shown) [Example 81, N-(2-(dimethylamino)ethyl)-3 fluoro-4-(1-(1-(3-isopropyl-1,2,4-thiadiazol-5-yl)piperidin-4-yl)-2-oxopyrrolidin-3-yloxy)benzamide] | 11.7 | 2.4 |
| CC(C)c1nsc(N2CCC(N3CCC(Oc4ccc(-n5cnnn5)nc4)C3=O)CC2)n1 (stereo not shown) [Example 82, 3-(6-(1H-tetrazol-1-yl)pyridin-3-yloxy)-1-(1-(3-isopropyl-1,2,4-thiadiazol-5-yl)piperidin-4-yl)pyrrolidin-2-one] | 12.8 | 2.4 |
| CC(C)c1nsc(N2CCC(N3CCC(Oc4ccc(-c5nnn(C)n5)cc4)C3=O)CC2)n1 (stereo not shown) [Example 83, 1-(1-(3-isopropyl-1,2,4-thiadiazol-5-yl)piperidin-4-yl)-3-(4-(2-methyl-2H-tetrazol-5-yl)phenoxy)pyrrolidin-2-one] | 14.9 | 2.5 |
| CC(C)c1nsc(N2CCC(N3CCC(Oc4ccc(-n5cnnn5)cc4)C3=O)CC2)n1 (stereo not shown) [Example 84, 3-(4-(1H-tetrazol-1-yl)phenoxy)-1-(1-(3-isopropyl-1,2,4-thiadiazol-5-yl)piperidin-4-yl)pyrrolidin-2-one] | 18.8 | 4.2 |
| CC(C)c1nsc(N2CCC(N3CCCC(Oc4cc(F)c(S(C)(=O)=O)cc4F)C3=O)CC2)n1 (stereo not shown) [Example 85, 3-(2,5-Difluoro-4-(methylsulfonyl)phenoxy)-1′-(3-isopropyl-1,2,4-thiadiazol-5-yl)-[1,4′-bipiperidin]-2-one] | 16.2 | 3.8 |
| CS(=O)(=O)c1ccc(O[C@H]2CCN(C3CCN(c4nc(C(F)(F)F)ns4)CC3)C2=O)c(F)c1 [Example 86, (S)-3-(2-Fluoro-4-(methylsulfonyl)phenoxy)-1-(1-(3-(trifluoromethyl)-1,2,4-thiadiazol-5-yl)piperidin-4-yl)pyrrolidin-2-one] | 11.1 | 3.4 |
| CS(=O)(=O)c1ccc(N[C@H]2CCCN(C3CCN(c4nc(C(F)(F)F)ns4)CC3)C2=O)c(F)c1 [Example 87, (S)-3-(2-fluoro-4-(methylsulfonyl)phenylamino)-1′-(3-(trifluoromethyl)-1,2,4-thiadiazol-5-yl)-[1,4′-bipiperidin]-2-one] | 13.6 | 2.1 |
| CS(=O)(=O)c1cc(F)c(N[C@H]2CCN(C3CCN(c4nc(C(F)(F)F)ns4)CC3)C2=O)c(F)c1 [Example 88, (S)-3-(2,6-difluoro-4-(methylsulfonyl)phenylamino)-1-(1-(3-(trifluoromethyl)-1,2,4-thiadiazol-5-yl)piperidin-4-yl)pyrrolidin-2-one] | 11.8 | 3.0 |
| CS(=O)(=O)c1cc(F)c(N[C@H]2CCN(C3CCN(c4nc(C(F)(F)F)ns4)CC3)C2=O)cc1F [Example 89, (S)-3-(2,5-difluoro-4-(methylsulfonyl)phenylamino)-1-(1-(3-(trifluoromethyl)-1,2,4-thiadiazol-5-yl)piperidin-4-yl)pyrrolidin-2-one] | 15.1 | 3.8 |
| CS(=O)(=O)c1ccc(N[C@H]2CCN(C3CCN(c4nc(C(F)(F)F)ns4)CC3)C2=O)c(F)c1 [Example 90, (S)-3-(2-fluoro-4-(methylsulfonyl)phenylamino)-1-(1-(3-(trifluoromethyl)-1,2,4-thiadiazol-5-yl)piperidin-4-yl)pyrrolidin-2-one] | 8.5 | 2.9 |
| CS(=O)(=O)c1cc(F)c(O[C@H]2CCN(C3CCN(c4nc(C(F)(F)F)ns4)CC3)C2=O)cc1F [Example 91, (S)-3-(2,5-difluoro-4-(methylsulfonyl)phenoxy)-1-(1-(3-(trifluoromethyl)-1,2,4-thiadiazol-5-yl)piperidin-4-yl)pyrrolidin-2-one] | 25.6 | 5.4 |
| CC(C)c1nsc(N2CCC(N3CCC(Cc4ccc(S(C)(=O)=O)cc4)C3=O)CC2)n1 (stereo not shown) [Example 92, 1-(1-(3-isopropyl-1,2,4-thiadiazol-5-yl)piperidin-4-yl)-3-(4-(methylsulfonyl)benzyl)pyrrolidin-2-one] | 18.4 | 2.8 |
| CS(=O)(=O)c1cc(F)c(O[C@H]2CCCN(C3CCN(c4nc(C(F)(F)F)ns4)CC3)C2=O)cc1F [Example 93, (S)-3-(2,5-difluoro-4-(methylsulfonyl)phenoxy)-1′-(3-(trifluoromethyl)-1,2,4-thiadiazol-5-yl)-[1,4′-bipiperidin]-2-one] | 9.0 | 2.9 |

Reference: patent US20140256756A1, “PIPERIDINYL-SUBSTITUTED LACTAMS AS GPR119 MODULATORS” (Array BioPharma Inc., priority 2011, published 2014)
